Measured values: publication PMC11620517, “Novel hydrazone compounds with broad-spectrum antiplasmodial activity and synergistic interactions with antimalarial drugs” (Antimicrobial Agents and Chemotherapy, 2024)
Where two headings read alike, the source gives them in different places.

Legend:
[1] = test system: P. berghei ookinete development (Ookluc parasites); test: P. berghei ookinete luciferase inhibition assay; assay type: cell-based, Plasmodium berghei; settings: Plasmodium berghei, 24 h, read-out: IC50 (ookinete development)
P. falciparum W2 = test: Malaria SYBR Green I-Based Fluorescence (MSF) assay, blood stages; assay type: cell-based; settings: Plasmodium falciparum, W2, 72 h, read-out: IC50 (µM) (±SD) for strain: W2
Procedure, shortened: (§1)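 Late-ring/early-trophozoite cultures (0.3% parasitemia, 2% hematocrit) exposed to 12-point dilutions of compound (0.0098–20 µM) for 72 h at 37°C under 5% CO2/5% O2/90% N2. Parasite growth read as SYBR Green I fluorescence after 24 h lysis in the dark at 25°C.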

P. falciparum C2B = test: as above; assay type: cell-based; settings: Plasmodium falciparum, 72 h, read-out: IC50 (µM) (±SD) for strain: C2B
Procedure, shortened: as §1

P. falciparum TM91c235 = test: as above; assay type: cell-based; settings: Plasmodium falciparum, 72 h, read-out: IC50 (µM) (±SD) for strain: TM91c235
Procedure, shortened: as §1

P. falciparum D6 = test: as above; assay type: cell-based; settings: Plasmodium falciparum, D6, 72 h, read-out: IC50 (µM) (±SD) for strain: D6
Procedure, shortened: as §1

[2] = test system: primary primate hepatocytes; test: hepatocyte toxicity in the P. cynomolgi liver-stage assay; assay type: cell-based
in vitro = settings: human
Method: HepG2 cell viability was assessed using the Cell Proliferation kit with trypan blue exclusion. […] After incubation, a 1.5-mg/mL Cell Proliferation kit solution diluted in complete MEM medium was added to each well, followed by 1-hour dark incubation at 25°C. After aspiration of media and inhibitors, the plates were dried in a hood for 15 minutes, and acidified isopropyl alcohol was added to dissolve formazan dye crystals. The plates were then rotated for 15–30 minutes, and absorbance was determined using a Perkin Elmer Ensight plate reader.

[3] = test system: P. falciparum oocyst formation in Anopheles stephensi mosquitoes; test: P. falciparum oocyst inhibition assay (SMFA); assay type: in vivo, Plasmodium falciparum; settings: for Median (oocysts) / Median I % / Prevalence % / Prevalence I %: pooled from two representative experiments
Method: As previously described, P. falciparum infections were performed using SMFA with NF54 gametocyte cultures diluted to 0.3% stage V gametocytemia ([62]). Infected blood (O+ human 45% hematocrit in serum) was offered to mosquitoes for 30 minutes, and engorged mosquitoes were maintained on a 10% corn syrup solution supplemented by four concentrations of CB compounds (1, 2.5, 5, and 10 µM) at […] ([63]), with DMSO serving as a control. Eight days post-infection, mosquito midguts were dissected and stained with 0.2% mercurochrome for 30 minutes, and oocysts were quantified under a light microscope ([63]).

O=C(N/N=C/c1c(O)ccc2ccccc12)c1cc([N+](=O)[O-])cc([N+](=O)[O-])c1 [CB-61]
IC50 [1]: 29500 nM | IC50 (P. falciparum W2): 0.22 µM | IC50 (P. falciparum C2B): 0.3 µM | IC50 (P. falciparum TM91c235): 0.26 µM | IC50 (P. falciparum D6): 0.2 µM | Toxicity [2]: >10 µM | IC50 at 48 h (in vitro): > 20000 nM | Median oocyst # ([3]; 1 μM compound): 1 | Mean oocyst # excluding zeros (Range) ([3]; 1 μM compound, P. falciparum midgut infection in An. stephensi mosquitoes): 30 (0-109) | Prevalence ([3]; 1 μM compound, infection prevalence in mosquitoes): 60 | Median (oocysts) ([3]; 1 µM): 1 | Median I % ([3]; 1 µM): 83% | Prevalence % ([3]; 1 µM): 59% | Prevalence I % ([3]; 1 µM): 31% | Median oocyst # ([3]; 2.5 μM compound): 1 | Mean oocyst # excluding zeros (Range) ([3]; 2.5 μM compound, P. falciparum midgut infection in An. stephensi mosquitoes): 20 (0-65) | Prevalence ([3]; 2.5 μM compound, infection prevalence in mosquitoes): 55 | Median (oocysts) ([3]; 2.5 µM): 1 | Median I % ([3]; 2.5 µM): 83% | Prevalence % ([3]; 2.5 µM): 55% | Prevalence I % ([3]; 2.5 µM): 36% | % inhibition (median) ([3]; 2.5 μM, single experiments): 62% | Median oocyst # ([3]; 5 μM compound): 1 | Mean oocyst # excluding zeros (Range) ([3]; 5 μM compound, P. falciparum midgut infection in An. stephensi mosquitoes): 20 (0-68) | Prevalence ([3]; 5 μM compound, infection prevalence in mosquitoes): 55 | Median (oocysts) ([3]; 5 µM): 1 | Median I % ([3]; 5 µM): 83% | Prevalence % ([3]; 5 µM): 55% | Prevalence I % ([3]; 5 µM): 36% | % inhibition (median) ([3]; 5 μM, single experiments): 58% | Mean oocyst # excluding zeros (Range) ([3]; 7.5 μM, single experiments): 15 (0-53) | Median oocyst # ([3]; 7.5 μM, single experiments): 2.5 | Prevalence ([3]; 7.5 μM, single experiments): 75 | Median oocyst # ([3]; 10 μM compound): 0 | Mean oocyst # excluding zeros (Range) ([3]; 10 μM compound, P. falciparum midgut infection in An. stephensi mosquitoes): 7 (0-30) | Prevalence ([3]; 10 μM compound, infection prevalence in mosquitoes): 46 | Median (oocysts) ([3]; 10 µM): 0 | Median I % ([3]; 10 µM): 100% | Prevalence % ([3]; 10 µM): 46% | Prevalence I % ([3]; 10 µM): 47% | Mean oocyst # excluding zeros (Range) ([3]; 25 μM, single experiments): 1 (0-2) | Median oocyst # ([3]; 25 μM, single experiments): 0 | Prevalence ([3]; 25 μM, single experiments): 18 | Mean oocyst # excluding zeros (Range) ([3]; 50 μM, single experiments): 1 (0-2) | Median oocyst # ([3]; 50 μM, single experiments): 0 | Prevalence ([3]; 50 μM, single experiments): 15 | oocyst formation inhibition ([3]; 1 to 10 µM, midguts dissected 8 days after feeding): inhibited midgut oocyst formation in a dose-dependent manner | inhibition at 2.5 µM ([3]; read-out: % inhibition (mean), 2.5 μM compound, oocyst number vs DMSO control): 23% | inhibition at 5 µM ([3]; read-out: % inhibition (mean), 5 μM compound, oocyst number vs DMSO control): 23% | inhibition at 7.5 µM ([3]; read-out: % inhibition (mean), 7.5 μM, single experiments): 29% | inhibition at 10 µM ([3]; read-out: % inhibition (mean), 10 μM compound, oocyst number vs DMSO control): 72% | inhibition at 25 µM ([3]; read-out: % inhibition (mean), 25 μM, single experiments): 48% | inhibition at 50 µM ([3]; read-out: % inhibition (mean), 50 μM, single experiments): 49% | inhibition at 1 µM ([3]; read-out: % inhibition (median), 1 μM compound, oocyst number vs DMSO control): 83% | inhibition at 2.5 µM ([3]; read-out: % inhibition (median), 2.5 μM compound, oocyst number vs DMSO control): 83% | inhibition at 5 µM ([3]; read-out: % inhibition (median), 5 μM compound, oocyst number vs DMSO control): 83% | inhibition at 7.5 µM ([3]; read-out: % inhibition (median), 7.5 μM, single experiments): 79% | inhibition at 10 µM ([3]; read-out: % inhibition (median), 10 μM compound, oocyst number vs DMSO control): 100% | inhibition at 25 µM ([3]; read-out: % inhibition (median), 25 μM, single experiments): 100% | inhibition at 50 µM ([3]; read-out: % inhibition (median), 50 μM, single experiments): 100% | inhibition at 1 µM ([3]; read-out: % inhibition (prevalence), 1 μM compound, vs DMSO control): 31% | inhibition at 2.5 µM ([3]; read-out: % inhibition (prevalence), 2.5 μM compound, vs DMSO control): 36% | inhibition at 5 µM ([3]; read-out: % inhibition (prevalence), 5 μM compound, vs DMSO control): 36% | inhibition at 7.5 µM ([3]; read-out: % inhibition (prevalence), 7.5 μM, single experiments): 21% | inhibition at 10 µM ([3]; read-out: % inhibition (prevalence), 10 μM compound, vs DMSO control): 47% | inhibition at 25 µM ([3]; read-out: % inhibition (prevalence), 25 μM, single experiments): 74% | inhibition at 50 µM ([3]; read-out: % inhibition (prevalence), 50 μM, single experiments): 78%
